From patent publication US11174252B2, “Heterocyclic compounds as kinase inhibitors” (priority 2018, dated 2021)
Read-outs that look alike come from different tables or passages of the source.

Experiments:
MCF-7 = experiment: Cancer cell proliferation assay, single agent; format: cell-based; conditions: Homo sapiens
FMS kinase = FMS kinase (Homo sapiens (Human), UniProt P07333); experiment: LanthaScreen kinase assay (ATP, fluorescent-PolyGT substrate, TR-FRET); format: biochemical
[1] = MCF7, MCF-7 cells, treated for 24-168 hours, read-out: IC50 (nM) MCF-7
[2] = MCF7, read-out: IC50 (nM) MCF-7

Chain of FMS kinase (P07333 20-972): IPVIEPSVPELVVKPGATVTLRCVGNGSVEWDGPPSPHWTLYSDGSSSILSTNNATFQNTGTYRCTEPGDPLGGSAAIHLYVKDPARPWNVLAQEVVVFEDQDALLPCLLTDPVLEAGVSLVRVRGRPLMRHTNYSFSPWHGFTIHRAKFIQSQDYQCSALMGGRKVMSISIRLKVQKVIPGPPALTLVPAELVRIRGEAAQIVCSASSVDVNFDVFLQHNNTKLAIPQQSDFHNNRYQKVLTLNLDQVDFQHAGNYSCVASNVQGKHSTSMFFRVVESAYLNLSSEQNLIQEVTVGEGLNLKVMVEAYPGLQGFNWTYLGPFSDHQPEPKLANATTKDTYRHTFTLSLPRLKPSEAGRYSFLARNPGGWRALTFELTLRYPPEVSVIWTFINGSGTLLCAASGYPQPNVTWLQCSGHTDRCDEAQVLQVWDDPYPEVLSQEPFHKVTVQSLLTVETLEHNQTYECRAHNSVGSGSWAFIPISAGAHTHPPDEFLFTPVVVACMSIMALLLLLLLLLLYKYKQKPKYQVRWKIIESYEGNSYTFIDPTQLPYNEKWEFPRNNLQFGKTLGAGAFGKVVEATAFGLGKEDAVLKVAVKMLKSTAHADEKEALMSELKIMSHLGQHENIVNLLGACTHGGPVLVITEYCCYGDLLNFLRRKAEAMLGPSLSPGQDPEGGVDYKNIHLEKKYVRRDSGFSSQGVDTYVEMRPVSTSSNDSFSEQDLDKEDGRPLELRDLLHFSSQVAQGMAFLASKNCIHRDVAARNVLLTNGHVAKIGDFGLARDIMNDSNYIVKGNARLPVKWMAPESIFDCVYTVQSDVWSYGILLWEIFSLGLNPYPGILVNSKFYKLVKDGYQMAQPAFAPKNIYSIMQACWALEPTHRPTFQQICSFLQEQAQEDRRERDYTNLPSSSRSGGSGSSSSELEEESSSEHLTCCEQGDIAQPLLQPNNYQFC

Structure (SMILES)	IC50 (MCF-7; [1]) [nM]	IC50 (FMS kinase) [µM]	IC50 (MCF-7; [2]) [nM]
CC(C)N1CCc2ccc(Nc3ncc(F)c(-c4cc(F)c5c(c4)N(C(C)C)CCO5)n3)cc2C1 [Compound 19, N-(5-fluoro-4-(8-fluoro-4-isopropyl-3,4-dihydro-2H-benzo[b][1,4]oxazin-6-yl)pyrimidin-2-yl)-2-isopropyl-1,2,3,4-tetrahydroisoquinolin-7-amine]	< 10	0.003	–
CC(C)N1CCOc2c(F)cc(-c3nc(Nc4cccc5c4CCNC5)ncc3F)cc21 [Compound 15, N-(5-fluoro-4-(8-fluoro-4-isopropyl-3,4-dihydro-2H-benzo[b][1,4]oxazin-6-yl)pyrimidin-2-yl)-1,2,3,4-tetrahydroisoquinolin-5-amine]	–	0.022	114
CC(C)N1CCOc2c(F)cc(-c3nc(Nc4ccc(C5CCNCC5)c(F)c4)ncc3F)cc21 [Compound 18, 5-fluoro-N-(3-fluoro-4-(piperidin-4-yl)phenyl)-4-(8-fluoro-4-isopropyl-3,4-dihydro-2H-benzo[b][1,4]oxazin-6-yl) pyrimidin-2-amine]	–	0.019	< 10
CC(C)N1CCc2cc(Nc3ncc(F)c(-c4cc(F)c5c(c4)N(C(C)C)CCO5)n3)ccc2C1 [Compound 22, N-(5-fluoro-4-(8-fluoro-4-isopropyl-3,4-dihydro-2H-benzo[b][1,4]oxazin-6-yl)pyrimidin-2-yl)-2-isopropyl-1,2,3,4-tetrahydroisoquinolin-6-amine]	< 10	0.0065	–
CC(C)N1CCOc2c(F)cc(-c3nc(Nc4ccc5c(c4)CNCC5)ncc3F)cc21 [Compound 16, N-(5-fluoro-4-(8-fluoro-4-isopropyl-3,4-dihydro-2H-benzo[b][1,4]oxazin-6-yl)pyrimidin-2-yl)-1,2,3,4-tetrahydroisoquinolin-7-amine]	–	0.0025	3.8
COc1cc(Nc2ncc(F)c(-c3cc(F)c4c(c3)N(C(C)C)CCO4)n2)ccc1N1CCNCC1 [Compound 29, 5-fluoro-4-(8-fluoro-4-isopropyl-3,4-dihydro-2H-benzo[b][1,4]oxazin-6-yl)-N-(3-methoxy-4-(piperazin-1-yl)phenyl)pyrimidin-2-amine]	–	0.0025	48
CC(C)N1CCOc2c(F)cc(-c3nc(Nc4ccc(N5CCNCC5)cc4F)ncc3F)cc21 [Compound 11, 5-fluoro-N-(2-fluoro-4-(piperazin-1-yl)phenyl)-4-(8-fluoro-4-isopropyl-3,4-dihydro-2H-benzo[b][1,4]oxazin-6-yl)pyrimidin-2-amine]	–	0.25	225
CC(C)N1CCOc2c(F)cc(-c3nc(Nc4cc(N5CCNCC5)ccn4)ncc3F)cc21 [Compound 5, 5-fluoro-4-(8-fluoro-4-isopropyl-3,4-dihydro-2H-benzo[b][1,4]oxazin-6-yl)-N-(4-(piperazin-1-yl)pyridin-2-yl)pyrimidin-2-amine]	–	> 3.63	–
CCN1CCN(Cc2ccc(Nc3ncc(F)c(-c4cc(F)c5c(c4)N(C(=O)C4CC4)CCO5)n3)nc2)CC1 [Compound 8, cyclopropyl(6-(2-((5-((4-ethylpiperazin-1-yl)methyl)pyridin-2-yl)amino)-5-fluoropyrimidin-4-yl)-8-fluoro-2,3-dihydro-4H-benzo[b][1,4]oxazin-4-yl)methanone]	–	> 5	–
CC(C)N1CCOc2c(F)cc(-c3nc(Nc4ccc5c(c4)CCNC5)ncc3F)cc21 [Compound 13, N-(5-fluoro-4-(8-fluoro-4-isopropyl-3,4-dihydro-2H-benzo[b][1,4]oxazin-6-yl)pyrimidin-2-yl)-1,2,3,4-tetrahydroisoquinolin-6-amine]	–	–	3.8
CC(C)N1CCOc2c(F)cc(-c3nc(Nc4ccc5c(c4)CC(N(C)C)C5)ncc3F)cc21 (stereo not drawn) [Compound 37, N^5-(5-fluoro-4-(8-fluoro-4-isopropyl-3,4-dihydro-2H-benzo[b][1,4]oxazin-6-yl)pyrimidin-2-yl)-N^2,N^2-dimethyl-2,3-dihydro-1H-indene-2,5-diamine]	–	–	< 14
